Columns and labels:
[1] = tested on: SMN2 minigene mRNA (SMN2-A minigene construct); assay: SMN2 minigene mRNA splicing RT-qPCR assay in cultured cells; assay type: cell-based, human; conditions: Homo sapiens, HEK293-H; HEK293H cells stably transfected with SMN2-A minigene, 24 hours, 7-point concentration data; concentration giving 1.5-fold SMN2 full length mRNA relative to vehicle-treated cells; read-out: EC1.5x for production of full length SMN2 mRNA
Procedure: The reverse transcription-quantitative PCR-based (RT-qPCR) assay is used to quantify the level of the full length SMN2 minigene mRNA containing SMN2 exon 7 in a HEK293H cell line stably transfected with said minigene and treated with a test compound.
HEK293H cells stably transfected with the SMN2-A minigene construct described above (10,000 cells/well) are seeded in 200 μL of cell culture medium (DMEM plus 10% FBS, with 200 μg/mL hygromycin) in 96-well flat-bottom plates and the plate is immediately swirled to ensure proper dispersal of cells, forming an even monolayer of cells. Cells are allowed to attach for at least 4-6 hours. Test compounds are serially diluted 3.16-fold in 100% DMSO to generate a 7-point concentration curve. A solution of test compound (1 μL, 200× in DMSO) is added to each cell-containing well and the plate is incubated for 24 hours in a cell culture incubator (37° C., 5% CO2, 100% relative humidity). Two replicates are prepared for each test compound concentration. The cells are then lysed in Cells-To-Ct lysis buffer and the lysate is stored at −80° C.
Primer SMN Forward A (SEQ ID NO. 1) hybridizes to a nucleotide sequence in exon 7 (nucleotide 22 to nucleotide 40), primer SMN Reverse A (SEQ ID NO. 2) hybridizes to a nucleotide sequence in the coding sequence of Firefly luciferase, SMN Probe A (SEQ ID NO. 3) hybridizes to a nucleotide sequence in exon 7 (nucleotide 50 to nucleotide 54) and exon 8 (nucleotide 1 to nucleotide 21). The combination of these three oligonucleotides detects only SMN1 or SMN2 minigenes (RT-qPCR) and will not detect endogenous SMN1 or SMN2 genes.
The SMN forward and reverse primers are used at final concentrations of 0.4 μM. The SMN probe is used at a final concentration of 0.15 μM. The GAPDH primers are used at final concentrations of 0.2 μM and the probe at 0.15 μM.
The SMN2-minigene GAPDH mix (15 μL total volume) is prepared by combining 7.5 μL of 2×RT-PCR buffer, 0.4 μL of 25×RT-PCR enzyme mix, 0.75 μL of 20×GAPDH primer-probe mix, 4.0075 μL of water, 2 μL of 10-fold diluted cell lysate, 0.06 μL of 100 μM SMN forward primer, 0.06 μL of 100 μM SMN reverse primer, and 0.225 μL of 100 μM SMN probe.
PCR is carried out at the following temperatures for the indicated time: Step 1: 48° C. (15 min); Step 2: 95° C. (10 min); Step 3: 95° C. (15 sec); Step 4: 60° C. (1 min); then repeat Steps 3 and 4 for a total of 40 cycles.
Each reaction mixture contains both SMN2-A minigene and GAPDH primers/probe sets (multiplex design), allowing simultaneous measurement of the levels of two transcripts.
Two SMN spliced products are generated from the SMN2 minigene. The first spliced product containing exon 7, corresponding to SMN2 full length mRNA, is referred to herein using the term “SMN2 minigene FL.” The second spliced product lacking exon 7 is referred to herein using the term “SMN2 minigene Δ7.”
The increase of SMN2 minigene FL mRNA relative to that in cells treated with vehicle control is determined from real-time PCR data using a modified ΔΔCt method (as described in Livak and Schmittgen, Methods, 2001, 25:402-8). The amplification efficiency (E) is calculated from the slope of the amplification curve for SMN2 minigene FL and GAPDH individually. The abundances of SMN2 minigene FL and GAPDH are then calculated as (1+E)^−Ct, where Ct is the threshold value for each amplicon. The abundance of SMN2 minigene FL is normalized to GAPDH abundance. The normalized SMN2 minigene FL abundance from test compound-treated samples is then divided by normalized SMN2 minigene FL abundance from vehicle-treated cells to determine the level of SMN2 FL mRNA relative to vehicle control.

Smn protein = Smn protein assay (HTRF) in cultured cells (SMA patient fibroblasts GM03813); assay type: cell-based, human; conditions: 48 hours; for EC1.5x for Smn protein expression: SMA patient fibroblast cells (GM03813), HTRF, 7-point concentration data, concentration producing 1.5 times Smn protein vs DMSO vehicle control; for maximum fold (Fold) increase of Smn protein: SMA patient fibroblast cells, 7-point concentration curve, relative to vehicle control
Procedure: The Smn HTRF (homogeneous time resolved fluorescence) assay is used to quantify the level of Smn protein in SMA patient fibroblast cells treated with test compounds.
Cells are thawed and cultured in DMEM-10% FBS for 72 hours. Cells are trypsinized, counted and re-suspended to a concentration of 25,000 cells/mL in DMEM-10% FBS. The cell suspension is plated at 5,000 cells per well in a 96 well microtiter plate and incubated for 3 to 5 hours. […] Test compounds are serially diluted 3.16-fold in 100% DMSO to generate a 7-point concentration curve. 1 μL of test compound solution is transferred to cell-containing wells and cells are incubated for 48 hours in a cell culture incubator (37° C., 5% CO2, 100% relative humidity). Triplicate samples are set up for each test compound concentration. After 48 hours, the supernatant is removed from the wells and 25 μL of the RIPA lysis buffer, containing protease inhibitors, is added to the wells and incubated with shaking at room temperature for 1 hour. 25 μL of the diluent is added and then 35 μL of the resulting lysate is transferred to a 384-well plate, where each well contains 5 μL of the antibody solution (1:100 dilution of anti-SMN d2 and anti-SMN kryptate in SMN reconstitution buffer). The plate is centrifuged for 1 minute to bring the solution to the bottom of the wells, then incubated overnight at room temperature. Fluorescence for each well of the plate at 665 nm and 620 nm is measured on an EnVision multilabel plate reader (Perkin-Elmer).
The normalized fluorescence signal is calculated for each sample, Blank and vehicle control well by dividing the signal at 665 nm by the signal at 620 nm. Normalizing the signal accounts for possible fluorescence quenching due to the matrix effect of the lysate. The ΔF value (a measurement of Smn protein abundance as a percent value) for each sample well is calculated by subtracting the normalized average fluorescence for the Blank control wells from the normalized fluorescence for each sample well, then dividing this difference by the normalized average fluorescence for the Blank control wells and multiplying the resulting value by 100. The ΔF value for each sample well represents the Smn protein abundance from test compound-treated samples. The ΔF value for each sample well is divided by the ΔF value for the vehicle control wells to calculate the fold increase in Smn protein abundance relative to the vehicle control.

Row | SMILES | EC (1.5-fold) [1] [µM] | EC1.5x for Smn protein expression (Smn protein) | maximum fold (Fold) increase of Smn protein (Smn protein) | melting point [°C]
1 | O=c1oc2nc(N3CCNCC3)ccc2cc1-c1nc2ccccc2s1 [Cpd 1, 3-(1,3-benzothiazol-2-yl)-7-(piperazin-1-yl)-2H-pyrano[2,3-b]pyridin-2-one] | 0.1 to 0.3 | *** (an EC1.5× between >0.3 μM and ≦1 μM is indicated by three stars (***)) | *** (a fold increase between >1.35 and ≦1.5 is indicated by three stars (***)) | 258 to 260
2 | CN1CCN(c2ccc3cc(-c4nc5ccccc5s4)c(=O)oc3n2)CC1 [Cpd 3, 3-(1,3-benzothiazol-2-yl)-7-(4-methylpiperazin-1-yl)-2H-pyrano[2,3-b]pyridin-2-one] | 0.3 to 1 | * (An EC1.5× for Smn protein expression between >3 μM and ≦10 μM is indicated by one star (*)) | *** (a fold increase between >1.35 and ≦1.5 is indicated by three stars (***)) | 247 to 250
3 | O=c1oc2nc(N3CCN(Cc4ccccc4O)CC3)ccc2cc1-c1nc2c(Cl)cccc2s1 [Cpd 6, 3-(4-chloro-1,3-benzothiazol-2-yl)-7-[4-(2-hydroxybenzyl)piperazin-1-yl]-2H-pyrano[2,3-b]pyridin-2-one] | 3 to 30 |  | ** (a fold increase between >1.2 and ≦1.35 is indicated by two stars (**)) | 262 to 266
4 | Cl.O=c1oc2cc(N3CCNCC3)ncc2cc1-c1nc2c(Cl)cccc2s1 [Cpd 9, 3-(4-chloro-1,3-benzothiazol-2-yl)-7-(piperazin-1-yl)-2H-pyrano[3,2-c]pyridin-2-one hydrochloride] | 0.1 to 0.3 |  | * (A maximum fold increase ≦1.2 is indicated by one star (*)) | 266 to 270
5 | Cl.O=c1oc2nc(N3CCNCC3)ccc2cc1-c1cn2cccnc2n1 [Cpd 112, 3-(imidazo[1,2-a]pyrimidin-2-yl)-7-(piperazin-1-yl)-2H-pyrano[2,3-b]pyridin-2-one hydrochloride] | 0.1 to 0.3 | ** (an EC1.5× between >1 and ≦3 μM is indicated by two stars (**)) | *** (a fold increase between >1.35 and ≦1.5 is indicated by three stars (***)) | 
6 | Cc1ccc2nc(-c3cc4ccc(N5C[C@@H]6C[C@H]5CN6)nc4oc3=O)cn2c1 [Cpd 124, 7-[(1S,4S)-2,5-diazabicyclo[2.2.1]hept-2-yl]-3-(6-methylimidazo[1,2-a]pyridin-2-yl)-2H-pyrano[2,3-b]pyridin-2-one] | 0.1 to 0.3 | *** (an EC1.5× between >0.3 μM and ≦1 μM is indicated by three stars (***)) | **** (a fold increase between >1.5 and ≦1.65 is indicated by four stars (****)) | 
7 | Cc1cn2cc(-c3cc4ccc(N5C[C@@H]6C[C@H]5CN6)nc4oc3=O)nc2c(C)n1 [Cpd 135] | ≤ 0.1 | *** (an EC1.5× between >0.3 μM and ≦1 μM is indicated by three stars (***)) | ***** (a fold increase >1.65 is indicated by five stars (*****)) | 
8 | Cc1cc(F)c2nc(-c3cc4ccc(N5C[C@@H]6C[C@H]5CN6)nc4oc3=O)cn2c1 [Cpd 136, 7-[(1S,4S)-2,5-diazabicyclo[2.2.1]hept-2-yl]-3-(8-fluoro-6-methylimidazo[1,2-a]pyridin-2-yl)-2H-pyrano[2,3-b]pyridin-2-one] | ≤ 0.1 | *** (an EC1.5× between >0.3 μM and ≦1 μM is indicated by three stars (***)) | *** (a fold increase between >1.35 and ≦1.5 is indicated by three stars (***)) | 
9 | Cc1cn2cc(-c3cc4ccc(N5CCN[C@@H](C)C5)nc4oc3=O)nc2c(C)n1 [Cpd 146, 3-(6,8-dimethylimidazo[1,2-a]pyrazin-2-yl)-7-[(3S)-3-methylpiperazin-1-yl]-2H-pyrano[2,3-b]pyridin-2-one] | ≤ 0.1 | **** (an EC1.5×≦0.3 μM is indicated by four stars (****)) | **** (a fold increase between >1.5 and ≦1.65 is indicated by four stars (****)) | 
